Source: patent publication US5576022A, “Controlled release tacrine drug delivery systems and methods for preparing same” (Warner Lambert Company, priority 1995, dated 1996)

Experiments:
[1] = background; cited from earlier work
[2] = Single-dose 40-mg pharmacokinetics of CR1, CR2, CR6 and CR7 capsules in healthy elderly volunteers (Example 12); format: in vivo, human; conditions: all of the formulations
Source text: The study objective was to determine the relative bioavailability and in vivo release characteristics of a 40-mg tacrine IR capsule (CR1) and three prototype 40-mg tacrine CR capsules (CR2, CR6 and CR7) to aid in the development of a tacrine controlled-release formulation. Sixteen healthy volunteers received a single 40-mg tacrine dose of CR1, CR2, CR6, or CR7 according to a randomized, 4-way crossover design (Table 6). Subjects ranged in age from 59 to 77 years (mean=67). […] Serial blood samples were drawn up to 24 hours following each dose and were subsequently analyzed for tacrine, 1-OH tacrine, 2-OH tacrine, and 4-OH tacrine.

[3] = Single-dose 40-mg pharmacokinetics of CR1, CR3, CR4 and CR5 capsules in healthy elderly volunteers (Example 11, Protocol 970-36); conditions: all of the formulations
Procedure: Subjects ranged in age form 50 to 74 years (mean=62). None of the subjects were smokers. Serial blood samples were drawn up to 24 hours following each dose and subsequently analyzed for tacrine.
Lag-time (tlag) between dose administration and apparent start of absorption was determined as the sampling time immediately preceding time of the first quantifiable plasma concentration.
Extent of absorption was assessed by evaluation of AUC(O-tldc) values. […] Relative extent of absorption values based on AUC(O-.infin.) values were similar to those based on AUC(O-tldc).

SMILES | absorption and elimination in words [1] | Plasma 1-OH tacrine concentrations relative to tacrine [2] | Plasma 1-OH tacrine concentrations relative to tacrine [3]
Cl.Nc1c2c(nc3ccccc13)CCCC2 [tacrine, 1,2,3,4-tetrahydro-9-acridinamine hydrochloride] | rapidly absorbed and eliminated | – | –
Nc1c2c(nc3ccccc13)CCCC2O (stereo not drawn) [1-OH tacrine] | – | approximately three times higher | approximately two times higher
